Results published in patent US20230414699A1, “TREATMENT OF DERMATOLOGICAL CONDITIONS” (MC2 Therapeutics Ltd, priority 2020, published 2023).
Counter-ions that a name gives are not always drawn. Peptide text beside a SMILES is read from it.

Tests used:
[1] = tested on: Bovine Serum Albumin (BSA); assay: In vitro protein carbamylation assay (14C-potassium cyanate, BSA); type: biochemical; settings: for Degree of carbamylation (% relative to HBSS control): 10 mM nucleophile, 37° C., 72 hours
Method: 200 μL of a 0.5% BSA solution, 200 μL of test solution and 100 μL of a 5 μCi/mL ^14C-Potassium Cyanate solution was mixed in an Eppendorf tube (corresponding to a final concentration of 75 μM BSA, 25 μM ^14C-Potassium Cyanate, and 10 mM nucleophile). Samples run in triplicates (n=3). The Eppendorf tubes were incubated at 37° C. for 72 hours (if not otherwise stated).
After incubation a volume of 100 μL of each sample was transferred to a new Eppendorf tube containing 100 μL of a 10% trichloroacetic acid (TCA) and kept at 4° C. overnight (for precipitation of BSA). Subsequently, the precipitated BSA was separated from the buffer by centrifugation (10000 rpm, 30 seconds). The supernatant was removed and the BSA pellet was resuspended in 200 μL of a 10% solution of cold TCA (4° C.). The pellet was recovered by centrifugation (10000 rpm, 30 seconds) and supernatant was discarded. The BSA pellet was resuspended in 100 μL purified water (MilliQ) and transferred to a scintillation vial. The Eppendorf tube (previously containing the BSA pellet) was rinsed with an additional 100 μL purified water which al was transferred to the relevant scintillation vial.

[2] = tested on: reconstructed human skin (Epiderm Full Thickness); assay: In vitro protein carbamylation assay using reconstructed human skin (Protein Carbamylation Sandwich ELISA); type: cell-based; settings: 0.5 M urea:isocyanate 99:1 + 200 μL 2% nucleophile solution, apical, six days
Method: Epiderm Full Thickness (Epiderm FT, MatTek Corp., USA) tissues were transferred to B6 trays containing EpiDermTM Full Thickness Maintenance Medium (MatTek Corp., USA) immediately upon arrival and incubated for 24 hours at 37° C. and 5% CO2. […] At day 6, the treatment solutions and the maintenance medium were removed from the tissues, and pre-warmed phosphate buffered saline (DPBS, Sigma-Aldrich) was added and removed twice before the tissues were submitted for ELISA and histological analysis. The 7 different conditions were tested on four different tissues where one tissue from each treatment was submitted for ELISA and the remaining three tissues were submitted for histological analysis. Overview of Treatment Solutions Added to the Apical Compartment • 1. […] The concentration used was selected to resemble the approximate concentration of urea in urine (Liu et. al. 2012). Experimental procedure for protein extraction was modified from Ross-Hansen et al., 2014 and Palosuo et al., 1998. The cell covered […] filters (Mattek) were cut from the plastic insertion ring, and the cell layer gently peeled of the membrane with a scalpel. […] Samples were analysed undiluted in a Protein Carbamylation Sandwich ELISA (Cell Biolabs Inc cat no STA-877).

[3] = tested on: reconstructed human skin (EpiDermFT); assay: Histological analysis (H&E) of reconstructed human skin samples treated with urea:isocyanate; type: cell-based; settings: 0.5 M urea:isocyanate 99:1 + 200 μL 2% nucleophile solution, six days; vs control treated with only urea:isocyanate
Method: Epiderm Full Thickness (Epiderm FT, MatTek Corp., USA) tissues were transferred to B6 trays containing EpiDerm™ Full Thickness Maintenance Medium (MatTek Corp., USA) immediately upon arrival and incubated for 24 hours at 37° C. and 5% CO2. […] At day 6, the treatment solutions and the maintenance medium were removed from the tissues, and pre-warmed phosphate buffered saline (DPBS, Sigma-Aldrich) was added and removed twice before the tissues were submitted for ELISA and histological analysis. The 7 different conditions were tested on four different tissues where one tissue from each treatment was submitted for ELISA and the remaining three tissues were submitted for histological analysis. Overview of Treatment Solutions Added to the Apical Compartment • 1. […] EpiDermFT membranes were app. 1 cm in diameter and were fixed in formalin for 5 days. Membranes were cut into halves using a scissors and placed into histogel matrix aiming at having the cut surface as the tissue sectioning surface. The samples were dehydrated in alcohol and xylene and embedded in paraffin using a standard paraffin embedding procedure. Sections were cut at 4 μm for Hematoxylin and Eosin (H&E) staining and immunohistochemistry (IHC). Images were acquired using a 20× objective with a Zeiss AxioScan. Representative areas were selected for presentation. […]

[4] = 75 μM BSA, 25 μM 14C-potassium cyanate, n=3
[5] = dissolved in HBSS:DMSO 90:10, neutralized by equimolar NaOH before use
[6] = neutralized by equimolar NaOH before use

Row | Compound | Degree of carbamylation (% relative to HBSS control) [1, 4] [%] | also measured
1 | CC(=O)N[C@@H](CS)C(=O)O [Acetylcysteine, reference compound] | 14.3 | –
2 | Cl.N=C(N)NCCC[C@H](N)C(=O)O [Arg*HCl] | 66.1 | –
3 | COC(=O)[C@H](Cc1ccccc1)NC(=O)[C@@H](N)CC(=O)O [Aspartame] (HELM PEPTIDE1{D.F.[CO[*:1]]}$$$$V2.0) | 30.4 | –
4 | CC(C)C[C@H](NC(=O)[C@@H](O)[C@H](N)Cc1ccccc1)C(=O)O [Bestatin, reference compound] | 53.4 | –
5 | CC1=NCC[C@@H](C(=O)O)N1 [Ectoine, reference compound] | 97.9 | degree of carbamylation (%) relative to HBSS control, in words ([1]; text statement referring to Example 3): high degree of carbamylation
6 | N[C@@H](Cc1c[nH]cn1)C(=O)O [Histidine] | 61.1 | –
7 | CN(C)C(=N)NC(=N)N.Cl [Metformin*HCl, reference compound] | – | Degree of carbamylation (% relative to HBSS control) [1, 5]: 71.4%
8 | NCCNCC(=O)O [N-β-aminoethyl-Gly] | 29.7 | –
9 | N=C(N)c1ccc(OCCCCCOc2ccc(C(=N)N)cc2)cc1 [Pentamidine diisethionate, reference compound] | – | Degree of carbamylation (% relative to HBSS control) [1, 6]: 43.1%
10 | NNCCc1ccccc1 [Phenelzine sulfate, reference compound] | – | Degree of carbamylation (% relative to HBSS control) [1, 6]: 9.8%
11 | CC(N)C12CC3CC(CC(C3)C1)C2.Cl (stereo not drawn) [Rimantadine*HCl, reference compound] | – | Degree of carbamylation (% relative to HBSS control) [1, 5]: 78.5%
12 | N[C@@H](CC(=O)N1CCn2c(nnc2C(F)(F)F)C1)Cc1cc(F)c(F)cc1F [Sitagliptin] | – | inhibition of protein carbamylation (ELISA, FIG. 2) [2]: did not show complete inhibition; attachment of epidermis / reduction of skin damage (H&E, FIG. 3) [3]: least effect
13 | Ala-Gln | 34.8 | –
14 | Ala-Glu | 20.4 | –
15 | Arg | 52.4 | –
16 | Gly-Gly | 26.6 | –
17 | Gly-His | 22.6 | –
18 | Gly-Ser | 33.1 | –
19 | Ile-Pro | 41.4 | –
20 | Lys-Pro | 28.6 | –
21 | Pro-Ser | 41.9 | –
22 | Ser-Pro | 26.4 | –
23 | Sitagliptine phosphate [reference compound] | – | Degree of carbamylation (% relative to HBSS control) [1, 6]: 48.6%
24 | Tetraglycine | 24.9 | –
25 | Tyr-Ala | 26.1 | –
26 | Tyr-Pro | 32.8 | –
27 | Val-Pro | 22.1 | –
28 | Val-Tyr | 28.9 | –
